Reference: PubChem BioAssay AID2060892 (Molecular Pharmacology Branch, DTP, NCI, 2025)

Test system: HOP-62 complex spheroids with HUVEC/MSC, viability
Experiment: Anticancer human tumor HOP-62 cell line growth inhibition [RAS];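 further: spheroids exposed to agents for seven days before readout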;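 on viability, T/C: 100% = DMSO vehicle control viability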
Conditions: for IC50: curve of first compound; for viability, T/C: stronger effect = lower value
Procedure, shortened: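 Agents were tested in combination matrices in half-log decrements from a top concentration at or near clinical Cmax (10 microM if undetermined). Targets were multi-cell spheroids of tumour lines plus HUVEC and MSC stromal cells.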

[1] = second compound 0.00316 µM, first compound 0.00316 µM
[2] = second compound 0.00316 µM, first compound 0.01 µM
[3] = second compound 0.00316 µM, first compound 0.0316 µM
[4] = second compound 0.00316 µM, first compound 0.1 µM
[5] = second compound 0.01 µM, first compound 0.00316 µM
[6] = second compound 0.01 µM, first compound 0.01 µM
[7] = second compound 0.01 µM, first compound 0.0316 µM
[8] = second compound 0.01 µM, first compound 0.1 µM
[9] = second compound 0.0316 µM, first compound 0.00316 µM
[10] = second compound 0.0316 µM, first compound 0.01 µM
[11] = second compound 0.0316 µM, first compound 0.0316 µM
[12] = second compound 0.0316 µM, first compound 0.1 µM
[13] = second compound 0.1 µM, first compound 0.00316 µM
[14] = second compound 0.1 µM, first compound 0.01 µM
[15] = second compound 0.1 µM, first compound 0.0316 µM
[16] = second compound 0.1 µM, first compound 0.1 µM
[17] = second compound 0.316 µM, first compound 0.00316 µM
[18] = second compound 0.316 µM, first compound 0.01 µM
[19] = second compound 0.316 µM, first compound 0.0316 µM
[20] = second compound 0.316 µM, first compound 0.1 µM
[21] = second compound 1 µM, first compound 0.00316 µM
[22] = second compound 1 µM, first compound 0.01 µM
[23] = second compound 1 µM, first compound 0.0316 µM
[24] = second compound 1 µM, first compound 0.1 µM
[25] = second compound 0.00316 µM, first compound 0.316 µM
[26] = second compound 0.00316 µM, first compound 1 µM
[27] = second compound 0.01 µM, first compound 0.316 µM
[28] = second compound 0.01 µM, first compound 1 µM
[29] = second compound 0.0316 µM, first compound 0.316 µM
[30] = second compound 0.0316 µM, first compound 1 µM
[31] = second compound 0.1 µM, first compound 0.316 µM
[32] = second compound 0.1 µM, first compound 1 µM
[33] = second compound 0.316 µM, first compound 0.316 µM
[34] = second compound 0.316 µM, first compound 1 µM
[35] = second compound 1 µM, first compound 0.316 µM
[36] = second compound 1 µM, first compound 1 µM

CC(C)n1nc(-c2ccc3oc(N)nc3c2)c2c(N)ncnc21 + C=CC(=O)N1CCN(c2nc(OCC3CCCN3C)nc3c(F)c(-c4nc(N)cc(C)c4C(F)(F)F)c(Cl)cc23)C(C)C1
IC50 (second compound 0.00316 µM): 3.91 nM
IC50 (second compound 0.01 µM): 3.62 nM
IC50 (second compound 0.0316 µM): 1.35 nM
IC50 (second compound 0.1 µM): 1.29 nM
IC50 (second compound 0.316 µM): 1.3 nM
IC50 (second compound 1 µM): 1.54 nM
viability, T/C (second compound 0.00316 µM, first compound 0.000316 µM): 65.2%
viability, T/C (second compound 0.00316 µM, first compound 0.001 µM): 62.2%
viability, T/C [1]: 51.7%
viability, T/C [2]: 39.5%
viability, T/C [3]: 26.7%
viability, T/C [4]: 17.2%
viability, T/C (second compound 0.01 µM, first compound 0.000316 µM): 63%
viability, T/C (second compound 0.01 µM, first compound 0.001 µM): 62.7%
viability, T/C [5]: 52.6%
viability, T/C [6]: 33%
viability, T/C [7]: 27%
viability, T/C [8]: 17.2%
viability, T/C (second compound 0.0316 µM, first compound 0.000316 µM): 61.4%
viability, T/C (second compound 0.0316 µM, first compound 0.001 µM): 51.9%
viability, T/C [9]: 43%
viability, T/C [10]: 34.4%
viability, T/C [11]: 23.9%
viability, T/C [12]: 14%
viability, T/C (second compound 0.1 µM, first compound 0.000316 µM): 59.5%
viability, T/C (second compound 0.1 µM, first compound 0.001 µM): 53.2%
viability, T/C [13]: 40.6%
viability, T/C [14]: 27%
viability, T/C [15]: 20.8%
viability, T/C [16]: 14.1%
viability, T/C (second compound 0.316 µM, first compound 0.000316 µM): 61.1%
viability, T/C (second compound 0.316 µM, first compound 0.001 µM): 49.6%
viability, T/C [17]: 45.8%
viability, T/C [18]: 25.9%
viability, T/C [19]: 22.1%
viability, T/C [20]: 12.9%
viability, T/C (second compound 1 µM, first compound 0.000316 µM): 64.9%
viability, T/C (second compound 1 µM, first compound 0.001 µM): 50.1%
viability, T/C [21]: 47.7%
viability, T/C [22]: 30.2%
viability, T/C [23]: 20.9%
viability, T/C [24]: 13.2%

CC(Nc1ccc2c(c1)OCCn1cc(N3C(=O)OCC3C(F)F)nc1-2)C(N)=O (stereo unspecified) + C=CC(=O)N1CCN(c2nc(OCC3CCCN3C)nc3c(F)c(-c4nc(N)cc(C)c4C(F)(F)F)c(Cl)cc23)C(C)C1
IC50 (second compound 0.00316 µM): 140 nM
IC50 (second compound 0.01 µM): 63.4 nM
IC50 (second compound 0.0316 µM): < 31.6 nM
IC50 (second compound 0.1 µM): 34.6 nM
IC50 (second compound 0.316 µM): < 31.6 nM
IC50 (second compound 1 µM): < 31.6 nM
viability, T/C [3]: 57.6%
viability, T/C [4]: 53.6%
viability, T/C [25]: 44.2%
viability, T/C [26]: 35.5%
viability, T/C (second compound 0.00316 µM, first compound 3.16 µM): 30.9%
viability, T/C (second compound 0.00316 µM, first compound 10 µM): 19.6%
viability, T/C [7]: 56.5%
viability, T/C [8]: 44.6%
viability, T/C [27]: 37.8%
viability, T/C [28]: 32.7%
viability, T/C (second compound 0.01 µM, first compound 3.16 µM): 27.7%
viability, T/C (second compound 0.01 µM, first compound 10 µM): 18.9%
viability, T/C [11]: 47.5%
viability, T/C [12]: 40.9%
viability, T/C [29]: 36.1%
viability, T/C [30]: 30.2%
viability, T/C (second compound 0.0316 µM, first compound 3.16 µM): 24.5%
viability, T/C (second compound 0.0316 µM, first compound 10 µM): 16.5%
viability, T/C [15]: 52%
viability, T/C [16]: 42%
viability, T/C [31]: 39.2%
viability, T/C [32]: 32.5%
viability, T/C (second compound 0.1 µM, first compound 3.16 µM): 24%
viability, T/C (second compound 0.1 µM, first compound 10 µM): 15.7%
viability, T/C [19]: 47.4%
viability, T/C [20]: 37.4%
viability, T/C [33]: 32.9%
viability, T/C [34]: 30.6%
viability, T/C (second compound 0.316 µM, first compound 3.16 µM): 20.5%
viability, T/C (second compound 0.316 µM, first compound 10 µM): 16.8%
viability, T/C [23]: 43.6%
viability, T/C [24]: 40.8%
viability, T/C [35]: 32.2%
viability, T/C [36]: 29.6%
viability, T/C (second compound 1 µM, first compound 3.16 µM): 24.3%
viability, T/C (second compound 1 µM, first compound 10 µM): 13%

O=C(c1ccc(F)c(F)c1Nc1ccc(I)cc1F)N1CC(O)([C@@H]2CCCCN2)C1 + C=CC(=O)N1CCN(c2nc(OCC3CCCN3C)nc3c(F)c(-c4nc(N)cc(C)c4C(F)(F)F)c(Cl)cc23)C(C)C1
IC50 (second compound 0.00316 µM): 46.5 nM
IC50 (second compound 0.01 µM): 38.3 nM
IC50 (second compound 0.0316 µM): 20 nM
IC50 (second compound 0.1 µM): 22.7 nM
IC50 (second compound 0.316 µM): 14 nM
IC50 (second compound 1 µM): 17.6 nM
viability, T/C [1]: 77.1%
viability, T/C [2]: 77.8%
viability, T/C [3]: 55.2%
viability, T/C [4]: 36.5%
viability, T/C [25]: 20%
viability, T/C [26]: 19.2%
viability, T/C [5]: 68.2%
viability, T/C [6]: 65.5%
viability, T/C [7]: 52.2%
viability, T/C [8]: 35.1%
viability, T/C [27]: 18.8%
viability, T/C [28]: 15%
viability, T/C [9]: 68.1%
viability, T/C [10]: 60.1%
viability, T/C [11]: 42.2%
viability, T/C [12]: 30.6%
viability, T/C [29]: 15.1%
viability, T/C [30]: 13.3%
viability, T/C [13]: 64.8%
viability, T/C [14]: 54.5%
viability, T/C [15]: 49.3%
viability, T/C [16]: 27.8%
viability, T/C [31]: 15.7%
viability, T/C [32]: 10.7%
viability, T/C [17]: 57%
viability, T/C [18]: 57.2%
viability, T/C [19]: 38.7%
viability, T/C [20]: 28%
viability, T/C [33]: 16.6%
viability, T/C [34]: 10.5%
viability, T/C [21]: 63.6%
viability, T/C [22]: 59.4%
viability, T/C [23]: 40.6%
viability, T/C [24]: 24.3%
viability, T/C [35]: 13.1%
viability, T/C [36]: 9.01%
